{
  "source": "patent US12514843B2",
  "about": "“Biofilm disruption” (QBIOTICS PTY LTD, priority 2019, dated 2026)",
  "key": {"[1]": {"tested_on": "P. aeruginosa PAO1 biofilm", "assay": "Disruption of established in vitro biofilm, CLSM with COMSTAT image analysis", "type": "cell-based, Pseudomonas aeruginosa", "conditions": "256 μg/mL", "procedure": "(§1) Biofilms of E. coli IR57 were grown on 96-well glass-bottomed plates in Mueller-Hinton (MH) broth for 24 h, before 50% of the supernatant was replaced with fresh MH broth with or without the epoxytiglienone compound added to a final concentration of 256 μg/mL (vehicle is ethanol). An ethanol equivalent blank was used as a further control treatment. The plates were then incubated for a further 24 h at 37° C.\n(§2) Confocal laser scanning microscopy (CLSM) was then used to image the biofilms, following staining with Live/Dead® Baclight stain with phosphate buffered saline (PBS) added to each well before imaging with z-stack CLSM. The resultant images were analysed by COMSTAT software to produce measurements of (i) biofilm biomass volume or bio-volume (μm^3/μm^2) and (ii) DEAD/LIVE bacterial ratio.\nThe effects of the epoxytiglienones (Compounds 1, 4, 6 and the comparator compound CC-1) on disruption of established in vitro biofilms were further investigated with two other species of Gram-negative bacteria (Pseudomonas aeruginosa PA01 and Acinetobacter baumannii 7789) using methods described in Example 2 above. Cell permeabilisation following Compound 1, 4 and 6 treatment was also determined using SYTOX™ Green Nucleic Acid Stain with untreated control and positive control of 70% isopropanol."}, "[2]": {"tested_on": "isolated human neutrophils", "assay": "NETosis/necrosis assay, Hoescht/Sytox Green fluorescence", "type": "cell-based", "procedure": "(§3) For these assays, neutrophils were isolated from fresh blood of a healthy human donor by lysis of a red blood cell pellet that had been obtained by Ficoll-Paque sedimentation. The neutrophils (˜4×10^6 cells/mL) were incubated with 10 μg/mL dihydroethidium (DHE) (Sigma-Aldrich) in complete culture medium at 37° C. for 15 min alongside an aliquot of unstained cells to be tested as unstained control.\nNETosis/necrosis assays followed methods fully described by Brinkmann et al. 2010. Isolated neutrophils were plated into 96-well plates (RPMI1640, 10% FCS) and incubated with a 1:50,000 dilution of Hoescht (10 mg/mL) and Sytox® Green (5 mM). Compound 4 was added at six concentrations (0.005, 0.05, 0.5. 5, 50, 500 μM) and the cells incubated at 37° C., 5% CO2. Vehicle treated controls were included in all assays and there were three replicates of each assay. Hoescht/Sytox® Green fluorescence images were recorded for each well at 3 and 6 hours."}, "[3]": {"tested_on": "human adult epidermal keratinocytes (HEKa)", "assay": "Microarray gene expression in keratinocytes in vitro", "type": "cell-based", "conditions": "170 nM", "procedure": "(§4) In addition to disrupting the structure of biofilms comprising Gram-negative bacteria, effects of epoxytiglienones on regulation of genes involved in host response to bacterial infection were investigated in microarray studies with human adult epidermal keratinocytes (HEKa) and human adult dermal fibroblasts (HDF) in vitro.\n(§5) For these studies, HEKa were cultured in EpiLife® Medium supplemented with Supplement S7 (both from Life Technologies, Carlsbad, CA, USA), while HDF were cultured in Medium 106 supplemented with LSGS (Low Serum Growth Supplement) (both from Life Technologies). Cells where then treated with vehicle or 170 nM Compound 4 for 0, 0.5, 1, 2, 4, 8, 24, 48 and 72 hours. RNA was extracted using a Qiagen RNeasy mini kit and biotinylated using an Illumina TotalPrep RNA Amplification Kit (Ambion, Austin, TX, USA). Labelled RNA was hybridised to HumanHT-12 v4 BeadChip Arrays (Illumina Inc, San Diego, CA, USA) and scanned according to standard Illumina protocols. Data were extracted in GenomeStudio (Illumina) using default analysis settings and no normalisation method. Resulting data were imported into GeneSpring GX (Agilent, Santa Clara, CA, USA. Expression values were normalised using quantile normalisation with default settings."}, "E. coli IR57 biofilm [4]": {"tested_on": "E. coli IR57 biofilm", "assay": "Multiple particle tracking (MPT) of 200 nm FluoSpheres in established biofilm", "type": "cell-based, Escherichia coli", "procedure": "The effect of three epoxytiglienones (Compounds 1, 4 and 6) on the assembly and permeability of established biofilms of E. coli was assessed using multiple particle tracking (MPT). MPT is a recently described technique, allowing simultaneous tracking of micron-size particles through biofilms using microscopy, from which the diffusion-based parameters of embedded particles within the extracellular polymeric matrix (EPS) of the biofilm can be determined (Cao et al. 2016). MPT measurements also allows for calculation of micro-rheological properties of the biofilm structure following treatment with test compounds.\nE. coli biofilms were established and epoxytiglienone and control treatments applied as described in Example 2 above. Twenty-four hours after application of the treatments, the biofilms were stained with SYTO9® and 0.0025% of negatively-charged, carboxylate-modified FluoSpheres® (200 nm) added onto the biofilms and incubated for a further 2 hours. FluoSphere® particle movements within the biofilms were then captured on video using epifluorescence microscopy with a high frame-rate camera (33 ms). Particle trajectories were tracked using ImageJ softwaren (Mosaic) before calculation of three parameters of the 200 nm FluoSphere® particles: (i) ensemble diffusion coefficient (Deff), (ii) ensemble mean squared displacement (MSD) and (iii) creep compliance (a measure of resistance to mechanical deformation derived from the MSD vs lag time). Each treatment was replicated three times."}, "[5]": {"tested_on": "human adult dermal fibroblasts (HDF)", "assay": "Microarray gene expression in fibroblasts in vitro", "type": "cell-based", "conditions": "170 nM, within 2 to 4 hours", "procedure": "as §4, §5"}, "E. coli IR57 biofilm [6]": {"tested_on": "E. coli IR57 biofilm", "assay": "Disruption of established in vitro biofilm, CLSM with COMSTAT image analysis", "type": "cell-based, Escherichia coli", "conditions": "E. coli IR57 24 h biofilm, 256 μg/mL, further 24 h; vs untreated and ethanol blank controls", "procedure": "The effects of administration of Compounds 1, 4 and 6 and comparator compound CC-1 on disruption of established in vitro biofilms of Escherichia coli (E. coli) was investigated using methods described in Powell et al. (2018).\nas §1, §2"}, "[7]": {"tested_on": "isolated human neutrophils", "assay": "LL-37 release from neutrophils, ELISA", "type": "cell-based", "conditions": "3 hours after treatment, 62.5, 125, 250 and 500 μM", "procedure": "as §3\nTo examine antimicrobial peptide release by neutrophils in response to treatment with Compound 4, isolated neutrophils were incubated with either vehicle or Compound 4 at the four concentrations (62.5, 125, 250 and 500 μM). At 3 h, cell culture supernatants were removed and tested for LL-37 content using a LL-37-directed ELISA kit (Hycult Biotech). ELISA readings were normalised to vehicle only controls to determine fold increases in LL-37 release."}},
  "data": [
    {"smiles": "CCCCCC(=O)OC1C(C)C2(O)C(C3OC3(CO)C(O)C3(O)C(=O)C(C)=CC32)C2C(C)(C)C12OC(=O)CCCCC", "note": "(stereo not shown) [Compound 4, 12,13-dihexanoyl-6,7-epoxy-4,5,9,12,13,20-hexahydroxy-1-tiglien-3-one]", "values": [
      {"measurement": "biofilm distribution (CLSM)", "setting": "[1]; compared to other treatments", "value": "significant effect"},
      {"measurement": "biofilm bio-volume (COMSTAT)", "setting": "[1]; compared to other treatments (P<0.05)", "value": "significant effect"},
      {"measurement": "DEAD/LIVE bacterial ratio", "setting": "[1]; vs untreated and ethanol blank controls", "value": "no significant differences"},
      {"measurement": "chromatin appearance in neutrophils (more diffuse)", "setting": "[2]; 50 μM", "value": "NETosis has occurred"},
      {"measurement": "chromatin appearance in neutrophils (condensed)", "setting": "[2]; 500 μM", "value": "necrosis has occurred"},
      {"measurement": "NETosis and necrosis of neutrophils", "setting": "[2]; 3 hours after treatment, 50 μM and 500 μM", "value": "initially observed"},
      {"measurement": "NETosis and necrosis of neutrophils", "setting": "[2]; 6 hours, four lower concentrations 0.005 μM-5 μM", "value": "evident"},
      {"measurement": "production of host defence peptides (DEFB2, DEFB3, DEFB4, RNASE7)", "setting": "[3]; from 8 to 72 hours post treatment", "value": "significantly upregulated"},
      {"measurement": "expression of chemokines/cytokines involved in PMNL recruitment (IL8, CXCL1)", "setting": "[3]; within 2 to 4 hours", "value": "significant upregulation"},
      {"measurement": "Diffusion coefficient (Deff) ± standard deviation", "setting": "E. coli IR57 biofilm [4]; 200 nm negatively-charged carboxylate-modified FluoSpheres in E. coli IR57 biofilms, 256 μg/mL, 24 h treatment", "value": "0.8449 ± 0.1250", "unit": "cm^2 · s^−1 × 10^−9"},
      {"measurement": "mean squared displacement (MSD) of FluoSphere particles", "setting": "E. coli IR57 biofilm [4]; E. coli IR57 biofilm, 200 nm FluoSpheres, vs untreated and ethanol blank controls", "value": "substantially higher"},
      {"measurement": "biofilm creep compliance", "setting": "E. coli IR57 biofilm [4]; E. coli IR57 biofilm, derived from MSD vs lag time, vs untreated and ethanol blank controls", "value": "increased"},
      {"measurement": "expression of chemokines/cytokines involved in PMNL recruitment (IL8, CXCL1)", "setting": "[5]", "value": "significant upregulation"},
      {"measurement": "biofilm bio-volume (COMSTAT)", "setting": "E. coli IR57 biofilm [6]", "value": "Decreases in bio-volume were evident"},
      {"measurement": "distribution and density of bacteria in the biofilm (CLSM)", "setting": "E. coli IR57 biofilm [6]", "value": "significant changes"},
      {"measurement": "Release of LL-37 from neutrophils", "setting": "[7]", "value": "increased in a concentration dependent manner"}
    ]}
  ]
}
